Measured values reported in PubChem BioAssay (NCI).
“And” between values parts separate entries of the source, which are not always exact repeats. Identical values can stand only once.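 Where inhibition never reached the appropriate level, the endpoint shown equals the highest concentration tested. Otherwise, values were interpolated linearly from a five-concentration, 48-hour dose response in 96-well plates. GI50: concentration for 50% inhibition of growth. The concentration for full growth arrest is given as TGI.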

Key:
Test in all cases: DTP human tumour cell line panel, 48 h
A549 NSCLC = test system: A549 NSCLC
BT-549 breast = test system: BT-549 breast
CCRF-CEM leukemia = test system: CCRF-CEM leukemia
LOX IMVI melanoma = test system: LOX IMVI melanoma
NCI-H226 lung = test system: NCI-H226 lung
NCI-H522 lung = test system: NCI-H522 lung
SNB-75 CNS = test system: SNB-75 CNS
SR leukemia = test system: SR leukemia
TK-10 renal = test system: TK-10 renal
HOP-92 NSCLC = test system: HOP-92 NSCLC

Compound | GI50 (A549 NSCLC) | TGI (A549 NSCLC) | GI50 (BT-549 breast) | TGI (BT-549 breast) | GI50 (CCRF-CEM leukemia) | TGI (CCRF-CEM leukemia) | GI50 (LOX IMVI melanoma) | TGI (LOX IMVI melanoma) | GI50 (NCI-H226 lung) | TGI (NCI-H226 lung) | GI50 (NCI-H522 lung) | TGI (NCI-H522 lung) | GI50 (SNB-75 CNS) | TGI (SNB-75 CNS) | GI50 (SR leukemia) | TGI (SR leukemia) | GI50 (TK-10 renal) | TGI (TK-10 renal) | TGI (HOP-92 NSCLC) | GI50 (HOP-92 NSCLC)
Cc1ccc([P+](Cc2ccccc2)(c2ccccc2)c2ccccc2)cc1 | 3.08 µM | 64.8 µM | 3.31 µM | 14.8 µM | 2.5 µM | 18.9 µM | 2.48 µM | 14.3 µM | 2.57 µM | > 100 µM | 1.78 µM | 6.88 µM | 2.21 µM | 9.71 µM | 2.66 µM | 16.5 µM | – | – | – | –
COc1ccc(/C=C/C(=O)c2c(O)ccc3c(C)c(C(=O)O)oc23)cc1 | 91.9 µM | > 100 µM | 73.7 µM | > 100 µM | 40.3 µM | > 100 µM | 35.6 µM | > 100 µM | 45.1 µM | > 100 µM | 33.9 µM | > 100 µM | – | – | 19.2 µM | 64.4 µM | > 100 µM | > 100 µM | – | –
COc1ccc2c(c1)[n+]([O-])c(-c1cccc(Cl)c1)c(N)[n+]2[O-] | – | > 100 µM | – | – | – | > 100 µM | – | – | – | > 100 µM | – | 30.4 µM | – | – | – | > 100 µM | – | – | > 100 µM | –
COc1cc2c(c(O)c1Cl)C(=O)c1c(O)cc(C[C@H](C)O)cc1[C@H]2[C@H]1c2cc(C[C@H](C)O)cc(O)c2C(=O)c2c1cc(OC)c(Cl)c2O | – | 75 µM and > 100 µM | 2.51 µM and 14 µM | 59 µM and 55.1 µM | – | 75 µM and > 100 µM | – | 13.2 µM and > 100 µM | – | 75 µM and 98.1 µM | – | – | – | 16.4 µM and 70.3 µM | – | 75 µM and > 100 µM | – | 33 µM and > 100 µM | – | –
O=C(O)CN(c1ccccc1)S(=O)(=O)c1cccc([N+](=O)[O-])c1 | – | > 100 µM | – | – | – | > 100 µM | – | > 100 µM | – | > 100 µM | – | > 100 µM | – | > 100 µM | – | – | – | > 100 µM | > 100 µM | –
Cc1ccc([Se](=C(C(=O)c2ccccc2)C(=O)c2ccccc2)c2ccc(C)cc2)cc1 | – | > 100 µM | – | – | – | – | – | – | – | 56.7 µM | – | 72.9 µM | – | > 100 µM | – | 33.2 µM | – | 94.6 µM | 53.4 µM | –
C/C(CCn1[nH]c(=O)ccc1=O)=N\NC(=O)C(N)=O | – | > 100 µM | – | – | – | – | – | > 100 µM | – | > 100 µM | – | > 100 µM | – | > 100 µM | – | – | – | > 100 µM | > 100 µM | –
O=C1C(=c2ccc(=C3C(=O)c4ccc([N+](=O)[O-])cc4[N+]3=O)cc2)N([O-])c2cc([N+](=O)[O-])ccc21 | > 100 µM | > 100 µM | – | – | > 100 µM | > 100 µM | > 100 µM | > 100 µM | > 100 µM | > 100 µM | > 100 µM | > 100 µM | – | 69.8 µM | – | – | – | – | > 100 µM | > 100 µM
O=C(O)CCCCn1ccc(=O)[nH]c1=O | – | > 100 µM | – | > 100 µM | – | > 100 µM | – | > 100 µM | – | > 100 µM | – | > 100 µM | – | > 100 µM | – | > 100 µM | – | > 100 µM | – | –
CCCCCCCCCCCCCC[n+]1ccccc1 | 1.22 µM | 2.84 µM | – | – | 0.334 µM | 1.99 µM | – | – | – | – | 0.923 µM | 3.37 µM | 0.523 µM | 2.22 µM | 0.499 µM | 2.94 µM | 0.491 µM | 1.81 µM | 0.841 µM | 0.144 µM
COC(=O)C1=COC2OC3C(C(C)O)C(=O)OC34C=CC1C24 (stereo unspecified) | – | > 100 µM | – | > 100 µM | – | 55.4 µM | – | > 100 µM | – | > 100 µM | – | 30.5 µM | – | > 100 µM | – | – | – | > 100 µM | > 100 µM | –
COC(=O)[C@H]1COC(=S)N1C(=O)[C@@H](C)[C@H](O)C(C)C | – | > 100 µM | – | – | – | > 100 µM | – | > 100 µM | – | > 100 µM | – | – | – | > 100 µM | – | > 100 µM | – | > 100 µM | > 100 µM | –
Cc1ccc(C)c2c1C(=O)N(c1ccc(F)cc1F)C2=O | > 100 µM | > 100 µM | > 100 µM | > 100 µM | > 100 µM | > 100 µM | > 100 µM | > 100 µM | > 100 µM | > 100 µM | > 100 µM | > 100 µM | > 100 µM | > 100 µM | – | – | > 100 µM | > 100 µM | > 100 µM | 1.11 µM
O=C(CN1CCN(Cc2ccccc2Cl)CC1)NC1CC(=O)c2c(Br)sc(Br)c21 (stereo unspecified) | 41.9 µM | > 100 µM | 19.4 µM | 35.7 µM | 20.7 µM | 54.8 µM | 18.6 µM | 35.8 µM | 23.9 µM | 91.8 µM | 2 µM | 5.06 µM | – | – | – | – | 44.3 µM | 97.1 µM | 31.6 µM | 14.1 µM
O=C(COc1ccccc1Cl)N1N=C(c2ccccc2)CC1(O)c1ccccc1 (stereo unspecified) | – | 44.4 µM | – | – | – | – | – | 30.4 µM | – | 35.9 µM | – | > 100 µM | – | > 100 µM | – | 32.8 µM | – | 49.2 µM | 42.3 µM | –
COC(=O)Cc1c([C@@]2(C)CCCC(C)(C)C2)ccc2c1C(=O)OC2 | – | 32.4 µM | – | – | – | 22.2 µM | – | 24.2 µM | – | 28.4 µM | – | 19.8 µM | – | 28.7 µM | – | – | – | 59.3 µM | 8.38 µM | –
COc1ccc(Nc2nc3cc(C(F)(F)F)ccc3nc2-c2ccccc2)cc1OC | – | > 100 µM | – | – | – | > 100 µM | – | > 100 µM | – | 69.7 µM | – | > 100 µM | – | > 100 µM | – | > 100 µM | – | 43 µM | 9.1 µM | –
OCC1OC2c3ccccc3COC2C1OCc1ccccc1 (stereo unspecified) | – | > 100 µM | – | – | – | – | – | – | – | > 100 µM | – | > 100 µM | – | > 100 µM | – | > 100 µM | – | > 100 µM | – | –
COc1cc2c3c(n(CCCN4CCNCC4)c(=O)c2cc1OC)-c1cc2c(cc1C3=O)OCO2 | 0.0393 µM | 0.922 µM | 1.4 µM | 7.97 µM | 0.0118 µM | 0.389 µM | 0.0732 µM | 0.757 µM | 0.127 µM | 3.71 µM | 2.18 µM | 15.7 µM | 1.44 µM | 11.1 µM | – | – | 0.762 µM | 2.66 µM | 1.28 µM | 0.041 µM
c1ccc2c(c1)SC(=C1Sc3ccccc3S1)S2 | – | > 100 µM | – | – | – | > 100 µM | – | > 100 µM | – | – | – | – | – | 73.3 µM | – | – | – | > 100 µM | > 100 µM | –
